This is an account of results in ChEMBL document CHEMBL1201862, “PubChem BioAssay data set” (2004).

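How tested: cells in 96-well plates exposed to compound for 48 hours at five concentrations. The concentration for 50% growth inhibition is given as GI50.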 The source made the active and inactive calls. No stated cut-off is given here; in the data, active = GI50 up to about 1.1 µM and inactive = higher. A value given as a limit tells only on which side of the number the result lay.

Holding throughout (experiment): NCI-60 cell line screen, 48 h
The test system of assay [1] is A549.
The test system of assay [2] is HL-60.
For assay [3], the system named is HOP-92.
The test system of assay [4] is HT-29.
In assay [5] the test system is KM12.
Assay [6] has as its system M14.
Assay [7] relates to NCI-H226.
The test system of assay [8] is NCI-H23.
Assay [9] concerns OVCAR-3.
Assay [10] has as its system OVCAR-8.
Assay [11] relates to RXF 393.
Assay [12] concerns SF-295.
Assay [13] concerns SF-539.
The test system of assay [14] is SN12C.
Assay [15] relates to SNB-75.
The test system of assay [16] is SR.
Assay [17] relates to SW-620.
The subject of assay [18] is T47D.
For assay [19], the system named is TK-10.
The test system of assay [20] is UO-31.

Take `N#Cc1nc(NC(=O)c2ccccc2)sc1N`: the GI50 in [1] was > 10 µM (inactive); in assay [2], 3 µM (inactive); in assay [3], > 10 µM (inactive); in assay [4] it was > 10 µM (inactive); in [5], > 10 µM (inactive); in assay [6] it was > 10 µM (inactive). Further, the GI50 in [7], in assay [8], in assay [9], in assay [10], in assay [11] and in [12] was > 10 µM (inactive) throughout. Further, the GI50 in assay [13] was > 10 µM (inactive); in [14], > 10 µM (inactive); in assay [15], > 10 µM (inactive); in [16] it was > 6.01 µM (inactive); in assay [17], > 10 µM (inactive); in assay [18], > 4.03 µM (inactive). Besides, the GI50 in [19] and in assay [20] was > 10 µM (inactive) in each case.

As to `Oc1ccccc1/C=N/Nc1nnc2c3ccccc3c3ccccc3c2n1`, the GI50 in assay [1] was > 100 µM (inactive); in assay [2], > 100 µM (inactive); in assay [3] it was > 100 µM (inactive); in [4], > 100 µM (inactive); in assay [5] it was 71.4 µM (inactive); in assay [6], > 100 µM (inactive). For the same molecule, the GI50 in [7] was > 100 µM (inactive); in assay [8], > 100 µM (inactive); in assay [9] it was 14.6 µM (inactive); in assay [10], > 100 µM (inactive); in [11], 25.1 µM (inactive); in assay [12], 32.8 µM (inactive). For the same molecule, the GI50 in assay [13] is > 100 µM (inactive); in assay [14], > 100 µM (inactive); in assay [15], 20.8 µM (inactive); in assay [16], 52.6 µM (inactive); in [17], 82.4 µM (inactive); in assay [18], 65 µM (inactive). Also, the GI50 is 45.4 µM (inactive) in assay [19] and > 100 µM (inactive) in [20].

Take `C#CCn1c(=O)ccn(/C(=C\C(=O)OCC)C(=O)OCC)c1=O`: the GI50 in assay [1] was 22.8 µM (inactive); in [2], 2.93 µM (inactive); in assay [3] it was 2.16 µM (inactive); in assay [4] it was 2.04 µM (inactive); in assay [5], 22.8 µM (inactive); in assay [6] it was 4.32 µM (inactive). In addition, the GI50 is 19.9 µM (inactive) in assay [7]; 14.9 µM (inactive) in assay [8]; 5.61 µM (inactive) in assay [9]; 2.31 µM (inactive) in assay [10]; 2.08 µM (inactive) in assay [11]; 22.9 µM (inactive) in assay [12]. The GI50 was 1.86 µM (inactive) in [13]; 8.89 µM (inactive) in assay [14]; 20 µM (inactive) in [15]; 5.02 µM (inactive) in [16]; 1.68 µM (inactive) in assay [17]; 3.52 µM (inactive) in assay [18]. The GI50 is 1.81 µM (inactive) in assay [19] and 13.5 µM (inactive) in assay [20].

On to `COc1ccc(NC(=S)NC(=O)c2ccc3c(c2)Sc2ccccc2O3)c([N+](=O)[O-])c1`, for which the GI50 is 42.1 µM (inactive) in [1]; 32.7 µM (inactive) in assay [2]; 19.2 µM (inactive) in [3]; 76.6 µM (inactive) in assay [4]; 60.1 µM (inactive) in assay [5]; 39.1 µM (inactive) in assay [6]. Also, the GI50 in [7] is > 100 µM (inactive); in assay [8] it was 83.2 µM (inactive); in [9], 22.6 µM (inactive); in assay [10], 31 µM (inactive); in [11], 19.3 µM (inactive); in assay [12], 92 µM (inactive). In addition, the GI50 in assay [13] is 24.9 µM (inactive); in [14], 35.1 µM (inactive); in assay [15], 8.36 µM (inactive); in [16], 28.8 µM (inactive); in assay [17] it was 0.387 µM (active); in assay [18], 22.4 µM (inactive). The GI50 is 17.9 µM (inactive) in assay [19] and 25.6 µM (inactive) in assay [20].
